Like-named read-outs stand apart in the source and are kept apart here.
Assays:
[1] = after 24 hours of co-treatment; cited from earlier work
[2] = at pH 74; cited from earlier work
[3] = 24 hours dendrimer pre-treatment, then 5-FU in isopropyl myristate for 48 hrs; cited from earlier work
[4] = Franz diffusion cell skin permeation/retention, porcine skin; format: in vitro ADME; settings: detection limit 9 ng/mL
[5] = taken orally for five years; cited from earlier work
[6] = test system: ER positive invasive breast cancer; settings: gel, 0.5 or 1 mg per breast per day; cited from earlier work
[7] = gel, cited from earlier work
[8] = test system: breast cancer cell growth; settings: tissue culture; cited from earlier work

Question: Which “increase of accumulative permeated amount by complexing with PAMAM dendrimers, as compared to the free drug” value [1] does the source give for O=C(O)c1cc(-c2ccc(F)cc2F)ccc1O [Diflunisal] here?
Answer: The value was 3.2 times.

Question: With CCCCCCCC/C=C\CCCCCCCC(=O)O [OA, oleic acid] as the compound, how does the reported partition coefficient [2] read?
Answer: The reported partition coefficient was 7.3.

Question: For O=c1[nH]cc(F)c(=O)[nH]1 [5-FU, 5-fluorouracil], which “fold enhancement in permeability coefficient” value [3] is on record?
Answer: Its value is “Up to 4 fold”.

Question: For CC/C(=C(\c1ccc(O)cc1)c1ccc(OCCNC)cc1)c1ccccc1 [endoxifen], which “endoxifen collected from the receiver solution (RP-HPLC)” value [4] is on record?
Answer: The value was under 9 ng/mL.

Question: Which “reduction of breast cancer risk” value [5] does the source give for CC/C(=C(\c1ccccc1)c1ccc(OCCN(C)C)cc1)c1ccccc1 [tamoxifen] here?
Answer: Its value is “about 50%”.

Question: For CC(C(=O)O)c1cccc(C(=O)c2ccccc2)c1 (stereo not drawn) [Ketoprofen], which “increase of accumulative permeated amount by complexing with PAMAM dendrimers, as compared to the free drug” value [1] is on record?
Answer: The value was 3.4 times.

Question: With 4-hydroxytamoxifen [4-OHT] as the compound, how does the “reduction of Ki-67 labeling” value [6] read?
Answer: The value was “reduced the Ki-67 labeling to a similar degree as oral TAM”.

Question: What about the “plasma level as fraction of those seen after 20 mg of oral TAM” value ([7]; 0.5 mg per breast per day) of the same compound?
Answer: The value was “approximately 1/30”.

Question: What about the “plasma levels of 4-OHT” value ([7]; 0.5 mg per breast per day) of the same compound?
Answer: Its value is 0.05 ng/mL.

Question: What about the “plasma level as fraction of those seen after 20 mg of oral TAM” value ([7]; 1 mg per breast per day) of the same compound?
Answer: Its value is 1/12.

Question: And the “plasma levels of 4-OHT” value ([7]; 1 mg per breast per day)?
Answer: The value was 0.13 ng/mL.

Question: And the “potency in suppressing breast cancer cell growth relative to TAM” value [8]?
Answer: Its value is “two-log greater potency”.
